Experimental data from ChEMBL document CHEMBL5331095, “Structure-activity relationship and biological evaluation of xanthine derivatives as PCSK9 inhibitors for the treatment of atherosclerosis” (Eur J Med Chem, 2023).
Active and inactive are the calls of the source. The rule behind the calls is not given here.

Legend:
Mus musculus [1] = assay: Antiatherosclerotic activity in high-fat diet fed ApoE knockout C57BL/6 mouse assessed as decrease in serum triglyceride level at 30 mg/kg, IG for 8 weeks by lipid profiling assay; type: functional, organism-based
[2] = Acute toxicity in C57BL/6 mouse assessed as behavioral change upto 1000 mg/kg, IG and measured every day for 1 week; type: organism-based; details: in vivo, po, 168 h, time 1 weeks
Mus musculus [3] = assay: In vivo inhibition of PCSK9 in high-fat diet fed ApoE knockout C57BL/6 mouse assessed as decrease in PCSK9 expression in liver at 30 mg/kg, IG for 8 weeks by Western blot analysis; type: functional, organism-based
Mus musculus [4] = assay: In vivo inhibition of PCSK9 in high-fat diet fed ApoE knockout C57BL/6 mouse assessed as decrease in PCSK9 expression in serum at 30 mg/kg, IG for 8 weeks by ELISA; type: functional, organism-based
[5] = Cytotoxicity against human HepG2 cells assessed as reduction in cell viability by measuring toxic concentration incubated for 24 hrs by MTT assay; type: toxicity, cell-based; details: read-out: TC50
[6] = molecular target: Proprotein convertase subtilisin/kexin type 9 (Homo sapiens) (UniProt Q8NBP7); assay: Inhibition of PCSK9 in human HepG2 cells assessed as increase in LDLR protein expression level at 2.5 to 25 uM incubated for 24 hrs by Western blot analysis; type: cell-based; details: dose 2.5-25 µM
Proprotein convertase subtilisin/kexin type 9 (Homo sapiens), sequence (Q8NBP7 31-152 limits assumed): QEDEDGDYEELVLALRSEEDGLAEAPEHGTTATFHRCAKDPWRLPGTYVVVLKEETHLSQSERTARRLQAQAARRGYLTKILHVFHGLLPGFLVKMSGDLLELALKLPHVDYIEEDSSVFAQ
Proprotein convertase subtilisin/kexin type 9 (Homo sapiens), sequence (Q8NBP7 153-692 limits assumed): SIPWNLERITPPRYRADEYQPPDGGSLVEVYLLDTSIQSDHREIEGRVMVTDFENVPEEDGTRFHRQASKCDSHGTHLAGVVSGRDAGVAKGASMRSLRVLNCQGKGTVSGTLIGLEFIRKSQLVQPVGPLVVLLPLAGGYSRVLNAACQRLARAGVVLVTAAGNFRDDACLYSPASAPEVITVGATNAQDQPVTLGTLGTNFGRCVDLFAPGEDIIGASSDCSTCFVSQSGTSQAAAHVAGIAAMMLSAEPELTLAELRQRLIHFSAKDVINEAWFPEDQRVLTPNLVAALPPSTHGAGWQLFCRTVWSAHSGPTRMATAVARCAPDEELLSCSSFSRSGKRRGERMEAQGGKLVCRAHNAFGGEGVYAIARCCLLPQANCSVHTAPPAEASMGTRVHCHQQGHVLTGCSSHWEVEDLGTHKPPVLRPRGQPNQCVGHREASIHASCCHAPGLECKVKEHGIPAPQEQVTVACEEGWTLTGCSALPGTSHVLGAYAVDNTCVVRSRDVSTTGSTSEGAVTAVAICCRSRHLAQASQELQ

[7] = Acute toxicity in C57BL/6 mouse assessed as survival upto 1000 mg/kg, IG and measured every day for 1 week; type: organism-based; details: in vivo, po, 168 h, time 1 weeks
[8] = molecular target: Proprotein convertase subtilisin/kexin type 9 (Homo sapiens) (UniProt Q8NBP7); assay: Inhibition of PCSK9 transcriptional activity in human HepG2 cells stably expressing luciferase reporter plasmid containing PCSK9 promoter assessed as decrease in luciferase activity at 10 ug/ml incubated for 24 hrs by Luciferase assay relative to control; type: cell-based; details: dose 10.0 µg/ml
[9] = Acute toxicity in C57BL/6 mouse assessed as body weight change upto 1000 mg/kg, IG and measured every day for 1 week; type: organism-based; details: in vivo, po, 168 h, time 1 weeks
[10] = molecular target: Proprotein convertase subtilisin/kexin type 9 (Homo sapiens) (UniProt Q8NBP7); assay: Inhibition of PCSK9 in human HepG2 cells assessed as increase in LDL-cholesterol cellular uptake by measuring DiI fluorescence at 2.5 to 25 uM incubated for 24 hrs by Dil-LDL staining based flow cytometry analysis; type: cell-based; details: dose 2.5-25 µM
[11] = molecular target: Proprotein convertase subtilisin/kexin type 9 (Homo sapiens) (UniProt Q8NBP7); assay: Inhibition of PCSK9 in human HepG2 cells assessed as fold increase in LDL-cholesterol cellular uptake by measuring DiI fluorescence at 25 uM incubated for 24 hrs by Dil-LDL staining based flow cytometry analysis relative to control; type: cell-based
[12] = test system: PCSK9 transcriptional activity; assay: Therapeutic index, ratio of TC50 for cytotoxicity against human HepG2 cells to IC50 for inhibition of PCSK9 transcriptional activity in human HepG2 cells stably expressing luciferase reporter plasmid containing PCSK9 promoter; type: toxicity, cell-based
Mus musculus [13] = assay: Antiatherosclerotic activity in high-fat diet fed ApoE knockout C57BL/6 mouse assessed as decrease in high-fat diet induced increase in body weight at 30 mg/kg, IG for 8 weeks; type: functional, organism-based
[14] = molecular target: Proprotein convertase subtilisin/kexin type 9 (Homo sapiens) (UniProt Q8NBP7); assay: Inhibition of PCSK9 in human HepG2 cells assessed as decrease in PCSK9 protein expression level at 2.5 to 25 uM incubated for 24 hrs by Western blot analysis; type: cell-based; details: dose 2.5-25 µM
Mus musculus [15] = assay: Antiatherosclerotic activity in high-fat diet fed ApoE knockout C57BL/6 mouse assessed as decrease in serum total cholesterol level at 30 mg/kg, IG for 8 weeks by lipid profiling assay; type: functional, organism-based
[16] = Acute toxicity in C57BL/6 mouse assessed as lethality upto 1000 mg/kg, IG and measured every day for 1 week; type: organism-based; details: in vivo, po, time 1 weeks

| SMILES | inhibition [8] | also measured |
| --- | --- | --- |
| Cn1c(=O)c2c(nc(NCCO)n2Cc2cccc(Cl)c2F)n(C)c1=O | 95.8% | Activity (Mus musculus [1]): inactive; Activity [2]: Non-Toxic; inhibition (Mus musculus [3]): Active; inhibition (Mus musculus [4]): inactive; CC50 at 24 h [5]: > 200 µM; inhibition [6]: Dose-Dependent Effect; Activity [7]: Non-Toxic; Activity [9]: Non-Toxic; inhibition [10]: Dose-Dependent Effect; fold change (FC) [11]: 1.7; selectivity ratio [12]: > 35.1; Activity (Mus musculus [13]): Active; inhibition [14]: Dose-Dependent Effect; Activity (Mus musculus [15]): inactive; LD50 at 168 h [16]: > 1000 mg/kg |
| COc1cccc(Cn2c(N(C)CCO)nc3c2c(=O)n(C)c(=O)n3C)c1 | 9.4% |  |
| Cn1c(=O)c2c(nc(NCCO)n2Cc2ccc(F)cc2F)n(C)c1=O | 76.1% |  |
| COc1cc(Cn2c(NCCO)nc3c2c(=O)n(C)c(=O)n3C)cc(OC)c1 | 1.7% |  |
| Cn1c(=O)c2c(nc(NCCO)n2Cc2ccc(F)cc2)n(C)c1=O | 93.1% |  |
| COC(=O)CCNc1nc2c(c(=O)n(C)c(=O)n2C)n1Cc1cccc(OC)c1 | 41.4% |  |
| COc1cccc(Cn2c(NCCCCO)nc3c2c(=O)n(C)c(=O)n3C)c1 | 41.4% |  |
| COc1cccc(Cn2c(N3CCCCC3CN3CCCC3)nc3c2c(=O)n(C)c(=O)n3C)c1 (stereo unspecified) | 0.8% |  |
| Cn1c(=O)c2c(nc(NCCO)n2Cc2ccc([N+](=O)[O-])cc2)n(C)c1=O | 23.3% |  |
| COC(=O)CNc1nc2c(c(=O)n(C)c(=O)n2C)n1Cc1cccc(OC)c1 | 68.4% |  |
| Cn1c(=O)c2c(nc(NCCO)n2Cc2ccc(F)c(C(F)(F)F)c2)n(C)c1=O | 87% | CC50 at 24 h [5]: 55.1 µM; selectivity ratio [12]: 7.1 |
| COc1cccc(Cn2c(NCCCO)nc3c2c(=O)n(C)c(=O)n3C)c1 | 60.1% |  |
| COc1cccc(Cn2c(N3CCC(CCN(C)C)CC3)nc3c2c(=O)n(C)c(=O)n3C)c1 | 17.4% |  |
| COc1cccc(Cn2c(N3CCSCC3)nc3c2c(=O)n(C)c(=O)n3C)c1 | 17% |  |
| COc1cccc(Cn2c(NCCCN(C)C)nc3c2c(=O)n(C)c(=O)n3C)c1 | 2.3% |  |
| COc1cccc(Cn2c(N3CCC(N4CCCC4)CC3)nc3c2c(=O)n(C)c(=O)n3C)c1 | 8.3% |  |
| COc1ccc(Cn2c(NCCO)nc3c2c(=O)n(C)c(=O)n3C)cc1 | 76.5% |  |
| COc1cccc(Cn2c(NCCO)nc3c2c(=O)n(C)c(=O)n3C)c1 | 89.8% | Activity (Mus musculus [1]): inactive; CC50 at 24 h [5]: 45.5 µM; selectivity ratio [12]: 16.8; Activity (Mus musculus [13]): Active; Activity (Mus musculus [15]): inactive; LD50 at 168 h [16]: 300 mg/kg |
| CCCn1c(NCCO)nc2c1c(=O)n(C)c(=O)n2C | 12.1% |  |
| Cn1c(=O)c2c(nc(NCCO)n2Cc2cc(F)cc(F)c2)n(C)c1=O | 43.3% |  |
| COc1cccc(Cn2c(NC(CO)CO)nc3c2c(=O)n(C)c(=O)n3C)c1 | 37% |  |
| Cn1c(=O)c2c(nc(NCCO)n2Cc2ccccc2[N+](=O)[O-])n(C)c1=O | 20.2% |  |
| Cn1c(=O)c2c(nc(NCCO)n2CC2CCOCC2)n(C)c1=O | 13.6% |  |
